Assay results reported in ChEMBL document CHEMBL6182862, “Discovery of novel azetidine-based imidazopyridines as selective and orally bioavailable inhibitors of phosphodiesterase 10A for the treatment of pulmonary arterial hypertension” (Eur J Med Chem, 2025).

How the values were obtained:
Cytochrome P450 3A4 = Cytochrome P450 3A4 (Homo sapiens, UniProt P08684); assay: Inhibition of CYP3A4 (unknown origin); assay type: ADME
in vitro [1] = settings: rat, liver microsomes
in vitro [2] = settings: PAMPA
[3] = target: cAMP and cAMP-inhibited cGMP 3',5'-cyclic phosphodiesterase 10A (Homo sapiens, UniProt Q9Y233)
[4] = target: Dual specificity calcium/calmodulin-dependent 3',5'-cyclic nucleotide phosphodiesterase 1C (Homo sapiens, UniProt Q14123); assay: Inhibition of PDE1C (147 to 531 residues) (unknown origin) using 3H-cGMP/3H-cAMP as substrate incubated for 15 mins by liquid scintillation counter analysis
[5] = target: cGMP-dependent 3',5'-cyclic phosphodiesterase (Homo sapiens, UniProt O00408); assay: Inhibition of PDE2A (580 to 919 residues) (unknown origin) using 3H-cGMP as substrate incubated for 15 mins by liquid scintillation counter analysis
[6] = target: cGMP-inhibited 3',5'-cyclic phosphodiesterase 3A (Homo sapiens, UniProt Q14432); assay: Inhibition of PDE3A (679 to 1087 residues) (unknown origin) using 3H-cAMP as substrate incubated for 15 mins by liquid scintillation counter analysis
[7] = target: 3',5'-cyclic-AMP phosphodiesterase 4D (Homo sapiens, UniProt Q08499); assay: Inhibition of PDE4D (86 to 413 residues) (unknown origin) using 3H-cAMP as substrate incubated for 15 mins by liquid scintillation counter analysis
[8] = target: cGMP-specific 3',5'-cyclic phosphodiesterase (Homo sapiens, UniProt O76074); assay: Inhibition of PDE5A1 (535 to 860 residues) (unknown origin) extracted from Escherichia coli BL21 using 3H-cGMP as substrate incubated for 15 mins by liquid scintillation counter analysis
[9] = target: Cone cGMP-specific 3',5'-cyclic phosphodiesterase subunit alpha' (Homo sapiens, UniProt P51160); assay: Inhibition of PDE6C (1 to 858 residues) (unknown origin) using 3H-cGMP as substrate incubated for 15 mins by liquid scintillation counter analysis
[10] = target: High affinity 3',5'-cyclic-AMP phosphodiesterase 7A (Homo sapiens, UniProt Q13946); assay: Inhibition of PDE7A1 (130 to 482 residues) (unknown origin) using 3H-cAMP as substrate incubated for 15 mins by liquid scintillation counter analysis
[11] = target: High affinity cGMP-specific 3',5'-cyclic phosphodiesterase 9A (Homo sapiens, UniProt O76083); assay: Inhibition of recombinant PDE9A2 (181 to 506 residues) (unknown origin) extracted from Escherichia coli BL21 using 3H-cGMP as substrate incubated for 15 mins by liquid scintillation counter analysis
[12] = target: Dual 3',5'-cyclic-AMP and -GMP phosphodiesterase 11A (Homo sapiens, UniProt Q9HCR9); assay: Inhibition of PDE11A4 (588 to 911 residues) (unknown origin) using 3H-cGMP/3H-cAMP as substrate incubated for 15 mins by liquid scintillation counter analysis
Cytochrome P450 1A2 = target: T1, Cytochrome P450 1A2 (Homo sapiens, UniProt P05177); assay: Inhibition of CYP1A2 (unknown origin); assay type: ADME
T1 sequence (P05177 whole entry): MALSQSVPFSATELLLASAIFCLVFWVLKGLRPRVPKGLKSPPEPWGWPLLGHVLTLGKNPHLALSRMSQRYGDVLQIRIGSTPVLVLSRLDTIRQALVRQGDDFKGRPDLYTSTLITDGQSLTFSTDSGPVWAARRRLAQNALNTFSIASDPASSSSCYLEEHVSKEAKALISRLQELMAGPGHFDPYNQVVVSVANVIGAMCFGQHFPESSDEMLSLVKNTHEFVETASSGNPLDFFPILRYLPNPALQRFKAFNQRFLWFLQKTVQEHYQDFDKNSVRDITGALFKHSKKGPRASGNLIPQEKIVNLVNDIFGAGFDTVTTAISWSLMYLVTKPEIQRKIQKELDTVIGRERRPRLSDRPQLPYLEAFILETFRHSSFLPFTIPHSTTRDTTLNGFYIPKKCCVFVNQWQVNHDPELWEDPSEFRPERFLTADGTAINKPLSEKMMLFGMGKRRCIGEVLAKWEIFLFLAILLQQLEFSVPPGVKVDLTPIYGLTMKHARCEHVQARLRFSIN

Cytochrome P450 2C19 = Cytochrome P450 2C19 (Homo sapiens, UniProt P33261); assay: Inhibition of CYP2C19 (unknown origin); assay type: ADME
Cytochrome P450 2C9 = Cytochrome P450 2C9 (Homo sapiens, UniProt P11712); assay: Inhibition of CYP2C9 (unknown origin); assay type: ADME
Cytochrome P450 2D6 = Cytochrome P450 2D6 (Homo sapiens, UniProt P10635); assay: Inhibition of CYP2D6 (unknown origin); assay type: ADME

Sequence of Cytochrome P450 3A4 (P08684 whole entry): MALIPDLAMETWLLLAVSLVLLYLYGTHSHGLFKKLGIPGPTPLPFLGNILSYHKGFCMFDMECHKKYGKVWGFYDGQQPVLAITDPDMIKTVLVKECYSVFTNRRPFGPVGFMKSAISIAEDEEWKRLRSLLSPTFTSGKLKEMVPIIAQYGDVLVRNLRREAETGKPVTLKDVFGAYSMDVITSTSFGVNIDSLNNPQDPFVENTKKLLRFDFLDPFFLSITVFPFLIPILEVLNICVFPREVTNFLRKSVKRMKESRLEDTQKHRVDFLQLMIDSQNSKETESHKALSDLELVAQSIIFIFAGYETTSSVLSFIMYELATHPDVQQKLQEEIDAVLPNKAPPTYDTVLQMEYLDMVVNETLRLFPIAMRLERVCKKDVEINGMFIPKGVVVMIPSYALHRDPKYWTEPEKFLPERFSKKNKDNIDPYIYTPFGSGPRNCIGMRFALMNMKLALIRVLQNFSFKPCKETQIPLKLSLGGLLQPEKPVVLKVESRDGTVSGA
Sequence of cGMP-dependent 3',5'-cyclic phosphodiesterase (O00408 whole entry, the tested form may be a part): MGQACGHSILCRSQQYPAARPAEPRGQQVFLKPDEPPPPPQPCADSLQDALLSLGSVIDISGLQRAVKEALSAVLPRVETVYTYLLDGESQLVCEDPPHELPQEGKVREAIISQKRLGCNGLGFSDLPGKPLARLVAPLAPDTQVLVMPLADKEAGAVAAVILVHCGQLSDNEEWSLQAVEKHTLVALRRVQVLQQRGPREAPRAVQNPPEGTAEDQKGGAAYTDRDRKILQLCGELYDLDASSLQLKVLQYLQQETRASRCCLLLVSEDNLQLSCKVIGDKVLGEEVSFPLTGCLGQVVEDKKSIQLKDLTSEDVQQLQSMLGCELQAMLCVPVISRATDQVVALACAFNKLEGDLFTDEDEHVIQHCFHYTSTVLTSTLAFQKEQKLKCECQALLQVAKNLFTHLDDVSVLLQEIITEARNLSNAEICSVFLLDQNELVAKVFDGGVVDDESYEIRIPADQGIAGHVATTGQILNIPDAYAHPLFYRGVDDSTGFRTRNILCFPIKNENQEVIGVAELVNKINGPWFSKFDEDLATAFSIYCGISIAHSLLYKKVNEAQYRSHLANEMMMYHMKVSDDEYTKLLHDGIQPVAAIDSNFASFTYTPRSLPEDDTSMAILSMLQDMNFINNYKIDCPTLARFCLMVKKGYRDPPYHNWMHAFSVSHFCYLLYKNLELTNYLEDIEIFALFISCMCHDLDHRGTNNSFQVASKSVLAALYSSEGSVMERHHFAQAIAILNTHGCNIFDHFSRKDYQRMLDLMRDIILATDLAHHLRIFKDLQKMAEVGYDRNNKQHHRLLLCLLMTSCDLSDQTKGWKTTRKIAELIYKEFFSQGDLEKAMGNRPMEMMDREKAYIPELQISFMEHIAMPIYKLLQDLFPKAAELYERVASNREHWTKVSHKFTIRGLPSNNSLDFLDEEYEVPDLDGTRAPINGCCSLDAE
Sequence of Cytochrome P450 2C19 (P33261 whole entry): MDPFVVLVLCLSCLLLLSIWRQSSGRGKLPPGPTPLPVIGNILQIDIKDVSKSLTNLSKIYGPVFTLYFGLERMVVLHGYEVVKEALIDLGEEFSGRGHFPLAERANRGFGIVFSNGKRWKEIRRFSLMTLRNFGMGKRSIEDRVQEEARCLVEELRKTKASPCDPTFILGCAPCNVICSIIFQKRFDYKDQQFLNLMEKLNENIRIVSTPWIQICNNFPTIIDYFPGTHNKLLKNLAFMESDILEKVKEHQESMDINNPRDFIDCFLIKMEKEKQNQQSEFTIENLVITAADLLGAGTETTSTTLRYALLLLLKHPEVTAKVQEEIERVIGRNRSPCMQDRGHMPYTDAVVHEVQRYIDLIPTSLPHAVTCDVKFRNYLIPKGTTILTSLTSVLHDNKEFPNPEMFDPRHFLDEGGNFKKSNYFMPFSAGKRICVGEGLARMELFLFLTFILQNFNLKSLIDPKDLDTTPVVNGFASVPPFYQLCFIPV
Sequence of High affinity cGMP-specific 3',5'-cyclic phosphodiesterase 9A (O76083 whole entry, the tested form may be a part): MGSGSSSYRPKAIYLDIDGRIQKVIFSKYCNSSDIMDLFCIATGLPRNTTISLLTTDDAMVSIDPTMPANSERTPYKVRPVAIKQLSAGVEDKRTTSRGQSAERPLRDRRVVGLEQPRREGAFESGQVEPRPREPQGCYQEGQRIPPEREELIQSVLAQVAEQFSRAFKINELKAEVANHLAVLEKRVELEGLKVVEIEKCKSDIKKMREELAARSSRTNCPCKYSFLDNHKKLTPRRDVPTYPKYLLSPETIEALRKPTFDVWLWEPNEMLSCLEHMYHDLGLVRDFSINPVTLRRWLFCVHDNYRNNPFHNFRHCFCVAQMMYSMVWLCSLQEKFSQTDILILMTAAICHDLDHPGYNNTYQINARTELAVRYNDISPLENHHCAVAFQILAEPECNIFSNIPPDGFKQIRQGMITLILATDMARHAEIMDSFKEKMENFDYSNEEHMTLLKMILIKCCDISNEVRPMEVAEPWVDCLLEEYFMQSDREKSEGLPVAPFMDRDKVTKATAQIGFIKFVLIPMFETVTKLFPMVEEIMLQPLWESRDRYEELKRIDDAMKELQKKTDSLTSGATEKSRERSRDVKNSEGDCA
Sequence of 3',5'-cyclic-AMP phosphodiesterase 4D (Q08499 whole entry, the tested form may be a part): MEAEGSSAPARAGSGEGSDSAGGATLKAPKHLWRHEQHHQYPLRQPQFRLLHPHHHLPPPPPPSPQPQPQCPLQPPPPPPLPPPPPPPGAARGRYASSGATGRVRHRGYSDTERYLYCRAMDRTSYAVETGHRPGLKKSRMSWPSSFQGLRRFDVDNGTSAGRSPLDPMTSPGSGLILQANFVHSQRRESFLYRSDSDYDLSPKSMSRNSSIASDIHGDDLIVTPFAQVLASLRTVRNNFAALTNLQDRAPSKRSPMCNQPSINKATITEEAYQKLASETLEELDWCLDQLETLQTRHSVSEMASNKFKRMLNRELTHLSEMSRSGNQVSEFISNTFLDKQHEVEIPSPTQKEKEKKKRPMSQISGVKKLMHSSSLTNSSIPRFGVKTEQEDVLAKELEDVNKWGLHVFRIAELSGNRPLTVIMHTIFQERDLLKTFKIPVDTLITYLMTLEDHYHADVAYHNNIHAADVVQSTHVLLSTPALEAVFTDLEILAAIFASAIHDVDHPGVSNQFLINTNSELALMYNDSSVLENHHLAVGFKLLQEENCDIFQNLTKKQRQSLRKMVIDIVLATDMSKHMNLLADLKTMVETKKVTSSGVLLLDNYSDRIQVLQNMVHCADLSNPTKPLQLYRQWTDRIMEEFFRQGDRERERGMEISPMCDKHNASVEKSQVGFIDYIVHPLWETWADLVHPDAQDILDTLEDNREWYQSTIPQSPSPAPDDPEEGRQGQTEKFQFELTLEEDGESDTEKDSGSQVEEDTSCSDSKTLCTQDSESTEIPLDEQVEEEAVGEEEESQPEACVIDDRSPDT
Sequence of cAMP and cAMP-inhibited cGMP 3',5'-cyclic phosphodiesterase 10A (Q9Y233 whole entry, the tested form may be a part): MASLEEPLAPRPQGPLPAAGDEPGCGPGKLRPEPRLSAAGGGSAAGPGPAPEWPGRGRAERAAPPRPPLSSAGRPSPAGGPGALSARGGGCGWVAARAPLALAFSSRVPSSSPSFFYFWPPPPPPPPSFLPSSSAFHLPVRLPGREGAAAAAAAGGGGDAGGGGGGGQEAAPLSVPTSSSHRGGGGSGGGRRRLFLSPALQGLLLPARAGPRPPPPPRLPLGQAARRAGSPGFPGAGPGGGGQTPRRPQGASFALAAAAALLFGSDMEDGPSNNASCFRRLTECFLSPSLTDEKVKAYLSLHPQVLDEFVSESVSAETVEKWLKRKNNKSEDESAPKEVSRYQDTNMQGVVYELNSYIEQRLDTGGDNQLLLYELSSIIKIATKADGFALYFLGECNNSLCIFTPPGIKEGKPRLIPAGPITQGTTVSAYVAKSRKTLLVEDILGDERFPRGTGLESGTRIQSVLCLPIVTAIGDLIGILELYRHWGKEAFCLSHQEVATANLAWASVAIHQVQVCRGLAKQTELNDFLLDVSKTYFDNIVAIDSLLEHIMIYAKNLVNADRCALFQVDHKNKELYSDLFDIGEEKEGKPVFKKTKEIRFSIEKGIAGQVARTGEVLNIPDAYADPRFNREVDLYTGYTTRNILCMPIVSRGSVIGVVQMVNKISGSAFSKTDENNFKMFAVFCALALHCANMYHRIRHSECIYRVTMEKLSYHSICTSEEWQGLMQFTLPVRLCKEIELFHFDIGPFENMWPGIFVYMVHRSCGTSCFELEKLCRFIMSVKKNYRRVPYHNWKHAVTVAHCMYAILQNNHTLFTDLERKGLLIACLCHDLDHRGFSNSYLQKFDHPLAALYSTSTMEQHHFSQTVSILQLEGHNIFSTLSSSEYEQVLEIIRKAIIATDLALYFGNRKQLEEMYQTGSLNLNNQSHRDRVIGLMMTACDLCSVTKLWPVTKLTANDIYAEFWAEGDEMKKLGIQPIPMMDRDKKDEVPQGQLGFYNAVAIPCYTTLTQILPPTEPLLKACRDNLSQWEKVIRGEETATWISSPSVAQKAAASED
Sequence of High affinity 3',5'-cyclic-AMP phosphodiesterase 7A (Q13946 whole entry, the tested form may be a part): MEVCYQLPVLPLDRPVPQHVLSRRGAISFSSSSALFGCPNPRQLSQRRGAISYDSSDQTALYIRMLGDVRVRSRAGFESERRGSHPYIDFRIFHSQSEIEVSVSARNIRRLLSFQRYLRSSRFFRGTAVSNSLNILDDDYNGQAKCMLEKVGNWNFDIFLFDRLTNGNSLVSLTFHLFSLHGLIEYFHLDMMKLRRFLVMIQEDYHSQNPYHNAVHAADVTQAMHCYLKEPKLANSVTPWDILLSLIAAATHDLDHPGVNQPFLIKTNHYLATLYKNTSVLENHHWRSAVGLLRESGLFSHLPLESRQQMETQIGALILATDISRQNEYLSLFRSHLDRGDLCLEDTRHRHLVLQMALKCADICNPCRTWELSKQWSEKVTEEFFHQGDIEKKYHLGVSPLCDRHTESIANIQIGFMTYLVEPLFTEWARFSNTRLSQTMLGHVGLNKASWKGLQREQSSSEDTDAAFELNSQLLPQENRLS

| Structure (SMILES) | IC50 (Cytochrome P450 3A4) | half-life (in vitro [1]) | Papp (in vitro [2]) | IC50 [3] | IC50 [4] | IC50 [5] | IC50 [6] | IC50 [7] | IC50 [8] | IC50 [9] | IC50 [10] | IC50 [11] | IC50 [12] | IC50 (Cytochrome P450 1A2) | IC50 (Cytochrome P450 2C19) | IC50 (Cytochrome P450 2C9) | IC50 (Cytochrome P450 2D6) |
| --- | --- | --- | --- | --- | --- | --- | --- | --- | --- | --- | --- | --- | --- | --- | --- | --- | --- |
| Cc1ccc2c(c1)nc(/C=C/c1cccc3cccnc13)n2-c1cccc(OCCCN2CCN(C)CC2)c1 | 0.21 µM | 25 min | 1.47 ×10⁻⁶ cm/s | – | – | – | – | – | – | – | – | – | – | – | – | – | – |
| Cc1ccc2c(c1)nc(C1CN(c3nc(Cl)nc4ccccc34)C1)n2-c1ccccc1 | – | 0.72 min | – | 0.0312 µM | – | – | – | – | – | – | – | – | – | – | – | – | – |
| CCOC(=O)c1c(C2CN(c3cc(C(=O)NCCN(CC)CC)c4ccccc4n3)C2)nc2ccccn12 | > 30 µM | – | – | – | > 10 µM | > 10 µM | > 10 µM | 1.28 µM | > 10 µM | > 10 µM | > 10 µM | > 10 µM | > 10 µM | > 30 µM | > 30 µM | > 30 µM | 9.7 µM |
